How the values were obtained:
ACHN = test: NCI DTP cell line screen (SRB), Renal Cancer; format: cell-based, human
Experimental: (§1) Screening of compounds 70 and 71 against several cancer cell lines The human tumor cell lines of the cancer screening panel are grown in RPMI 1640 medium containing 5% fetal bovine serum and 2 mM L-glutamine. For a typical screening experiment, cells are inoculated into 96 well microtiter plates in 100 μL at plating densities ranging from 5,000 to 40,000 cells/well depending on the doubling time of individual cell lines. After cell inoculation, the microtiter plates are incubated at 37° C., 5% CO2, 95% air and 100% relative humidity for 24 h prior to addition of experimental drugs.
(§2) After 24 h, two plates of each cell line are fixed in situ with TCA, to represent a measurement of the cell population for each cell line at the time of drug addition (Tz). Experimental drugs are solubilized in dimethyl sulfoxide at 400-fold the desired final maximum test concentration and stored frozen prior to use. At the time of drug addition, an aliquot of frozen concentrate is thawed and diluted to twice the desired final maximum test concentration with complete medium containing 50 μg/ml gentamicin. Additional four, 10-fold or ½ log serial dilutions are made to provide a total of five drug concentrations plus control. Aliquots of 100 μl of these different drug dilutions are added to the appropriate microtiter wells already containing 100 μl of medium, resulting in the required final drug concentrations.
(§3) Following drug addition, the plates are incubated for an additional 48 h at 37° C., 5% CO2, 95% air, and 100% relative humidity. For adherent cells, the assay is terminated by the addition of cold TCA. Cells are fixed in situ by the gentle addition of 50 μl of cold 50% (w/v) TCA (final concentration, 10% TCA) and incubated for 60 minutes at 4° C. The supernatant is discarded, and the plates are washed five times with tap water and air dried. Sulforhodamine B (SRB) solution (100 μl) at 0.4% (w/v) in 1% acetic acid is added to each well, and plates are incubated for 10 minutes at room temperature. After staining, unbound dye is removed by washing five times with 1% acetic acid and the plates are air dried. Bound stain is subsequently solubilized with 10 mM trizma base, and the absorbance is read on an automated plate reader at a wavelength of 515 nm. For suspension cells, the methodology is the same except that the assay is terminated by fixing settled cells at the bottom of the wells by gently adding 50 μl of 80% TCA (final concentration, 16% TCA). Using the seven absorbance measurements [time zero, (Tz), control growth, (C), and test growth in the presence of drug at the five concentration levels (Ti)], the percentage growth is calculated at each of the drug concentrations levels. Percentage growth inhibition is calculated as: [(Ti−Tz)/(C−Tz)]×100 for concentrations for which Ti>/=Tz [(Ti−Tz)/Tz]×100 for concentrations for which Ti<Tz
(§4) Three dose response parameters are calculated for each experimental agent. […] The drug concentration resulting in total growth inhibition (TGI) is calculated from Ti=Tz. […] Values are calculated for each of these three parameters if the level of activity is reached; however, if the effect is not reached or is exceeded, the value for that parameter is expressed as greater or less than the maximum or minimum concentration tested.
(§5) The methods described were used to test compounds 70 and 71 on a panel of sixty cell lines under a screening service provided by the Developmental Therapeutics Program at the National Institutes of Health. Shown in FIG. 1C are 1, RPMI-8226 leukemia cells; 2; NCI-H322M non-small cell lung cancer cells; 3, HT29 colon cancer cells; 4, U251 CNS cancer cells; 5, SK-MEL-28 melanoma cancer cells; 6, SK-OV-3 ovarian cancer cells; 7, RXF 393 renal cancer cells; 8, PC-3 prostate cancer cells; 9, MDA-MB-231 breast cancer cells.

RXF 393 = test: NCI DTP cell line screen (SRB), Renal Cancer; format: cell-based, human; details: RXF 393
Experimental: as §1, §2, §3, §4, §5

CAKI-1 = test: NCI DTP cell line screen (SRB), Renal Cancer; format: cell-based, human
Experimental: as §1, §2, §3, §4, §5

UO-31 = test: NCI DTP cell line screen (SRB), Renal Cancer; format: cell-based, human
Experimental: as §1, §2, §3, §4, §5

HOP-62 = test: NCI DTP cell line screen (SRB), Non-Small Cell Lung Cancer; format: cell-based
Experimental: as §1, §2, §3, §4, §5

NCI-H23 = test: as above; format: cell-based
Experimental: as §1, §2, §3, §4, §5

NCI-H322M = test: as above; format: cell-based
Experimental: as §1, §2, §3, §4, §5

A549/ATCC = test: as above; format: cell-based
Experimental: as §1, §2, §3, §4, §5

## NCC(=O)Nc1ccc(-n2nc(C(F)(F)F)cc2-c2ccc3c(ccc4ccccc43)c2)cc1 [Compound 70, 2-Amino-N-{4-[5-(2-phenanthrenyl)-3-(trifluoromethyl)-1H-pyrazol-1-yl]-phenyl}-acetamide]
ACHN; Log10 Concentration −4.0
  Percent Growth: −16%
ACHN; Log10 Concentration −5.0
  Percent Growth: −60%
ACHN; Log10 Concentration −6.0
  Percent Growth: 70%
ACHN; Log10 Concentration −7.0
  Percent Growth: 102%
ACHN; Log10 Concentration −8.0
  Percent Growth: 94%
ACHN; in M (unit assumed)
  TGI: 3.45E−06
RXF 393; Log10 Concentration −4.0
  Percent Growth: 10%
RXF 393; Log10 Concentration −5.0
  Percent Growth: −56%
RXF 393; Log10 Concentration −6.0
  Percent Growth: 56%
RXF 393; Log10 Concentration −7.0
  Percent Growth: 75%
RXF 393; Log10 Concentration −8.0
  Percent Growth: 91%
CAKI-1; Log10 Concentration −4.0
  Percent Growth: −44%
CAKI-1; Log10 Concentration −5.0
  Percent Growth: −75%
CAKI-1; Log10 Concentration −6.0
  Percent Growth: 42%
CAKI-1; Log10 Concentration −7.0
  Percent Growth: 95%
CAKI-1; Log10 Concentration −8.0
  Percent Growth: 87%
CAKI-1; in M (unit assumed)
  TGI: 2.27E−06
UO-31; Log10 Concentration −4.0
  Percent Growth: −36%
UO-31; Log10 Concentration −5.0
  Percent Growth: −64%
UO-31; Log10 Concentration −6.0
  Percent Growth: 68%
UO-31; Log10 Concentration −7.0
  Percent Growth: 84%
UO-31; Log10 Concentration −8.0
  Percent Growth: 84%
UO-31; in M (unit assumed)
  TGI: 3.29E−06
HOP-62
  TGI: 3.01E−06
HOP-62; Log10 Concentration −4.0
  Percent Growth: −57%
HOP-62; Log10 Concentration −5.0
  Percent Growth: −70%
HOP-62; Log10 Concentration −6.0
  Percent Growth: 64%
HOP-62; Log10 Concentration −7.0
  Percent Growth: 93%
HOP-62; Log10 Concentration −8.0
  Percent Growth: 90%
NCI-H23
  TGI: 2.87E−06
NCI-H23; Log10 Concentration −4.0
  Percent Growth: −66%
NCI-H23; Log10 Concentration −5.0
  Percent Growth: −79%
NCI-H23; Log10 Concentration −6.0
  Percent Growth: 67%
NCI-H23; Log10 Concentration −7.0
  Percent Growth: 102%
NCI-H23; Log10 Concentration −8.0
  Percent Growth: 101%
NCI-H322M
  TGI: 2.18E−06
NCI-H322M; Log10 Concentration −4.0
  Percent Growth: −57%
NCI-H322M; Log10 Concentration −5.0
  Percent Growth: −84%
NCI-H322M; Log10 Concentration −6.0
  Percent Growth: 43%
NCI-H322M; Log10 Concentration −7.0
  Percent Growth: 51%
NCI-H322M; Log10 Concentration −8.0
  Percent Growth: 40%
A549/ATCC
  TGI: 2.96E−06
A549/ATCC; Log10 Concentration −4.0
  Percent Growth: −31%
A549/ATCC; Log10 Concentration −5.0
  Percent Growth: −57%
A549/ATCC; Log10 Concentration −6.0
  Percent Growth: 51%
A549/ATCC; Log10 Concentration −7.0
  Percent Growth: 86%
A549/ATCC; Log10 Concentration −8.0
  Percent Growth: 102%
